The values below come from patent US5278161A, “Amino acid derivatives useful as renin inhibitors” (Hoffmann-La Roche Inc., priority 1990, dated 1994).

One may read the IC50 as the point on the concentration scale where inhibition reaches its midpoint.

The target of the test is T1, human renin (Homo sapiens, UniProt P00797).
T1 sequence (P00797 67-406): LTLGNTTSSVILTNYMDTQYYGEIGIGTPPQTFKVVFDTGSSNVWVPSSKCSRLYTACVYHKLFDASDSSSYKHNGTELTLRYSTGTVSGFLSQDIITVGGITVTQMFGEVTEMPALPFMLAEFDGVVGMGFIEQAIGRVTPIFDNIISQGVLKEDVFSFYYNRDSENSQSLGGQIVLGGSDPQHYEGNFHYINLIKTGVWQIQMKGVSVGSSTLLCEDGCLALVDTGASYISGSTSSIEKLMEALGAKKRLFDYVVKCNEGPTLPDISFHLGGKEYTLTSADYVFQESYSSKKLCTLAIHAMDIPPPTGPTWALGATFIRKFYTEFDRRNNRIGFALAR
As to the kind of experiment: In vitro test with pure human renin (inhibition of angiotensin I production from human tetradecapeptide renin substrate, RIA). The class given is biochemical. As to conditions: pH 7.4 buffer, hTD substrate, three hours at 37° C., angiotensin I by RIA. The protocol:
IN VITRO TEST WITH PURE HUMAN RENIN
The test is carried out in Eppendorf test tubes. The incubation mixture consists of (1) 100 μl of human renin in buffer A (0.1M sodium phosphate solution, pH 7.4, containing 0.1% bovine serum albumin, 0.1% sodium azide and 1 mM ethylenediaminetetraacetic acid), sufficient for a renin activity of 2-3 ng of angiotensin I/ml/hr.; (2) 145 μl of buffer A; (3) 30 μl of 10 μM human tetradecapeptide renin substrate (hTD) in 10 mM hydrochloric acid; (4) 15 μl of dimethyl sulphoxide with or without inhibitor and (5) 10 μl of a 0.03 molar solution of hydroxyquinoline sulphate in water.
The samples are incubated for three hours at 37° C. or 4° C. in triplicate. 2×100 μl samples per experimental test tube are used in order to measure the production of angiotensin I via RIA (standard radioimmunoassay; clinical assay solid phase kit). Cross reactivities of the antibody used in the RIA are: angiotensin I 100%; angiotensin II 0.0013%; hTD (angiotensin I-Val-Ile-His-Ser-OH) 0.09%. The production of angiotensin I is determined by the difference between the experiment at 37° C. and that at 4° C.
The following controls are carried out:
(a) Incubation of hTD samples without renin and without inhibitor at 37° C. and 4° C. The difference between these two values gives the base value of the angiotensin I production.
(b) Incubation of hTD samples with renin, but without inhibitor at 37° C. and 4° C. The difference between these values gives the maximal value of angiotensin I production.
In each sample the base value of the angiotensin I production is subtracted from the angiotensin I production which is determined. The difference between the maximal value and the base value gives the value of the maximal substrate hydrolysis (=100%) by renin.
The results are given as IC50 values which denote that concentration of the inhibitor at which the enzymatic activity is inhibited by 50%. The IC50 values are determined from a linear regression curve from a logit-log plot.

Consider `CCC(C)c1nc(-c2cccnc2)cn2c(C(Cc3cccnc3)C(=O)N[C@@H](CC3CCCCC3)[C@@H](O)[C@@H](O)C3CC3)nnc12` (single isomer, unassigned) [E, (S or R)-N-[(1S,2R,3S)-1-(cyclohexylmethyl)-3-cyclopropyl-2,3-dihydroxypropyl]-8-[(RS)-1-methylpropyl]-α-(3-pyridylmethyl)-6-(3-pyridyl)-s-triazolo[4,3-a]pyrazine-3-acetamide], for which 48 nM corresponded to half-maximal inhibition (IC50). This lies in the double-digit nanomolar range.

Molecule `CCCc1nc(-c2cccnc2)cn2c(C(Cc3cccnc3)C(=O)N[C@@H](CC3CCCCC3)[C@@H](O)[C@@H](O)CC(C)C)nnc12` (single isomer, unassigned) [D, (R or S)-N-[(1S,2R,3S)-1-(cyclohexylmethyl)-2,3-dihydroxy-5-methylhexyl]-8-propyl-6-(3-pyridyl)-α-(3-pyridylmethyl)-s-triazolo[4,3-a]pyrazine-3-acetamide] returned a concentration for half-maximal inhibition (IC50) of 57 nM. `CCC(C)c1nc(-c2cccnc2)cn2c(C(=O)N[C@@H](CC3CCCCC3)[C@@H](O)[C@@H](O)C3CC3)nnc12` (mixture of isomers) [F, N-[(1S,2R,3S)-1-(cyclohexylmethyl)-3-cyclopropyl-2,3-dihydroxypropyl]-8-[(RS)-1-methylpropyl]-6-(3-pyridyl)-s-triazolo[4,3-a]pyrazine-3-carboxamide]: the IC50 turned out to be 11 nM. `CCCc1nc(-c2cccnc2)cn2c(C(C(=O)N[C@@H](CC3CCCCC3)[C@@H](O)[C@@H](O)C3CC3)c3cccnc3)nnc12` (single isomer, unassigned) [A, (R or S)-N-[(1S,2R,3S)-1-(Cyclohexylmethyl)-3-cyclopropyl-2,3-dihydroxypropyl]-8-propyl-α,6-bis(3-pyridyl)-s-triazolo[4,3-a]pyrazine-3-acetamide] had an IC50 of 61 nM. In the case of `CC(C)c1nc(-c2cccnc2)cn2c(C(Cc3c[nH]cn3)C(=O)N[C@@H](CC3CCCCC3)[C@@H](O)[C@@H](O)C3CC3)nnc12` (single isomer, unassigned) [B, (R or S)-N-[(1S,2R,3S)-1-(cyclohexylmethyl)-3-cyclopropyl-2,3-dihydroxypropyl]-8-isopropyl-α-(imidazol-4-ylmethyl)-6-(3-pyridyl)-s-triazolo[4,3-a]pyrazine-3-acetamide], the IC50 was 43 nM. Regarding `CC(C)Cc1nc(-c2cccnc2)cn2c(C(Cc3cnc[nH]3)C(=O)N[C@@H](CC3CCCCC3)[C@@H](O)[C@@H](O)C3CC3)nnc12` (single isomer, unassigned) [C], the IC50 was 42 nM.
